Laboratory results from patent US10370366B2 (Flatley Discovery Lab, LLC, priority 2013, dated 2019).

Target: T1, human F508del CFTR (Homo sapiens, UniProt P13569, DEL508-508)
T1 construct: expressed in transfected cells; host or cells: Fisher Rat Thyroid (FRT) cells
Assay: CFTR-YFP High Throughput Assay
Assay type: cell-based
Settings: FRT cells expressing human F508del CFTR and YFP; for Emax: EMax normalized to the positive control, read-out: % Efficacy
Procedure: Assays for Detecting and Measuring the Effect of Compounds on F508del-CFTR Channels CFTR-YFP High Throughput Assay-CFTR Corrector Protocol:
This protocol is designed to selectively screen small molecule compounds for F508del CFTR corrector activities in the HTS YFP (yellow fluorescent protein) flux assay. In this protocol, the cells are incubated with testing compounds for 24 hours, washed with PBS, stimulated with forskolin and a standard potentiator, and fluorescence in each plate well is measured kinetically read on a 384-well HTS plate reader, such as the Hamamatsu FDSS-6000.
YFP fluorescence intensity values are acquired at high speed before and after iodide buffer is injected to the assay cells. Iodide enters the cells via active CFTR channels in the plasma membrane, and quenches the YFP fluorescence. The rate of fluorescence quenching is proportionate to the total CFTR activity in the cell membrane. F508del CFTR correctors increase the number of CFTR molecules in the testing cell plasma membrane, and thereby accelerate YFP quenching.
This method was initially developed for bench top plate readers (Galietta et al., 2001), and was adapted to the HTS format (Sui et al. Assay Drug Dev. Technol. 2010).
Fisher Rat Thyroid (FRT) cells stably expressing both human F508del CFTR and a halide-sensitive yellow fluorescent protein (YFP-H148Q/I152L 25,22) (Galietta et al. Am. J. Physiol Cell Physiol 281(5), C1734, 2001) were cultured on plastic surface in Coon's modified Ham's F12 medium supplemented with FBS 10%, L-glutamine 2 mM, penicillin 100 U/ml, and streptomycin 100 µg/ml. G418 (0.75-1.0 mg/ml) and zeocin (3.2 ug/ml) were used for selection of FRT cells expressing F508del CFTR and YFP. For primary screening, FRT cells were plated into 384-well black wall, transparent bottom microtiter plates (Costar; Corning Inc.) at a cell density of 20,000-40,000 per well. Test compound was applied to the cells at varying concentrations ranging from 2 nM-40 μM in either a 2-fold or 3-fold dilution series. Cells were incubated in a cell culture incubator at 37° C. with 5% CO2 for 24-26 h. Assay plates were washed with DPBS media (Thermo, cat# SH30028.02) to remove unbound cells and compound. Stimulation media (25 μL) containing 20 μM Forskolin & 30 μM P3 [6-(Ethyl-phenyl-sulfonyl)-4-oxo-1,4-dihydro-quinoline-3-carboxylic acid 2-methoxy-benzylamide] in Hams F-12 coon's modified media was added to the plate wells and incubated at room temperature for 60-120 min. […] (10 mM HEPES, 1 mM MgCl2, 3 mM KCl, 1 mM CaCl2, 150 mM NaI) was then added and fluorescence quench curves (Excitation 500 nm/Emission 540 nm; exposure 136 ms) were immediately recorded on an FDSS-6000 plate reader (Hamamatsu). Quench rates were derived from least squares fitting of the data as described by Sui et al (2010).
CFTR-YFP High Throughput Assay-CFTR Potentiator Protocol:
This protocol is designed to selectively screen small molecule compounds for F508del CFTR potentiator activities in the HTS YFP flux assay. Such compounds act acutely to stimulate CFTR already expressed on the membrane surface. In this protocol, the cells are incubated at 27° C. for 24 hours to homogeneously boost F508del CFTR expression in the cell membrane (low temperature correction), washed with PBS, treated with test compound, and CFTR activity is stimulated with forskolin for 1-2 hr. Measurement of ion flux is initiated by addition of iodide-containing buffer, and YFP quenching is kinetically recorded using a 384-well HTS plate reader, such as the Hamamatsu FDSS-6000.
YFP fluorescence intensity values are acquired at high speed over a 1 min time course before and after iodide buffer is injected to the assay cells. Iodide enters the cells via active CFTR channels in the plasma membrane, and quenches the YFP fluorescence. The rate of fluorescence quenching is proportionate to total CFTR activity in the cell membrane. […]

T1 sequence (P13569 with tags, fused parts or gaps DEL508-508): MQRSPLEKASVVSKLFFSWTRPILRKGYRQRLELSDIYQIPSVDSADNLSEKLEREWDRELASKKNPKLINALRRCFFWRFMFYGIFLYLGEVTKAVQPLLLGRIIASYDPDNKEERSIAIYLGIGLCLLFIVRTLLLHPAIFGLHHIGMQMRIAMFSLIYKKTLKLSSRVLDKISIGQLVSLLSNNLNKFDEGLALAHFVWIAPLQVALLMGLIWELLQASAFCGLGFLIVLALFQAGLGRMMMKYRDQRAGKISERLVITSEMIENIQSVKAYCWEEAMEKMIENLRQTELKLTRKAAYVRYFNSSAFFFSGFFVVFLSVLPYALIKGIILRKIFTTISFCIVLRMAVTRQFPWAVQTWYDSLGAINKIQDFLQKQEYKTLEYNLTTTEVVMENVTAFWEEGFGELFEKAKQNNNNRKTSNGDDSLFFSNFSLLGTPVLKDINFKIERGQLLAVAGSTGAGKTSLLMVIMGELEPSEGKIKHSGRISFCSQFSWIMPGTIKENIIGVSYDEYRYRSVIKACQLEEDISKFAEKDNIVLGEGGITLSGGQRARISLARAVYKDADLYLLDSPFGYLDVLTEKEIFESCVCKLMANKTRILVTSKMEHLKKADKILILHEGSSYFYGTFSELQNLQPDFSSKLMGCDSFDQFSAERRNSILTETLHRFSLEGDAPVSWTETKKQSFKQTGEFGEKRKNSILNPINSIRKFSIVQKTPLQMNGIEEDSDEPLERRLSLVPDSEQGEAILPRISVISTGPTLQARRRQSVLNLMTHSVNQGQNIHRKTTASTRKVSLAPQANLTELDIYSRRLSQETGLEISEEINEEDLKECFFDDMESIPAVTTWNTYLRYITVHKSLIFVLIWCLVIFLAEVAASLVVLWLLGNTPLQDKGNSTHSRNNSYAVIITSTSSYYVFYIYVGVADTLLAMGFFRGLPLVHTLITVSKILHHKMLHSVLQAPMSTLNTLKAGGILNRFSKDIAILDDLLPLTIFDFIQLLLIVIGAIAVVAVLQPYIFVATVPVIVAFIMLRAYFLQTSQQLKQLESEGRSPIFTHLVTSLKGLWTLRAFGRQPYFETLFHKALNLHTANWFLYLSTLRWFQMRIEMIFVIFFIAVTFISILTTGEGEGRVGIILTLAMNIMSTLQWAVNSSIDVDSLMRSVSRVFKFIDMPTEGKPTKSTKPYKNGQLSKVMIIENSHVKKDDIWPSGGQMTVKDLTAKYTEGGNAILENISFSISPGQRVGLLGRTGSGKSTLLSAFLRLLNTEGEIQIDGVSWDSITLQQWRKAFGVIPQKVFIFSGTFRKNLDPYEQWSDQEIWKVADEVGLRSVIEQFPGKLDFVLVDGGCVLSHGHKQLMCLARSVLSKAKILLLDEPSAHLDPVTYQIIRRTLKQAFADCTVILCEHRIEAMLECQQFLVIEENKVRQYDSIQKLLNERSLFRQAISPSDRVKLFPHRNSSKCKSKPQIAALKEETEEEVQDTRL

CCN(C(=O)Cn1nc(Cc2cccnc2)c2ccc(OC)cc2c1=O)c1ccc2c(c1)OC(F)(F)O2 [Example 52, N-(2,2-difluorobenzo[d][1,3]dioxol-5-yl)-N-ethyl-2-(7-methoxy-1-oxo-4-(pyridin-3-ylmethyl)phthalazin-2(1H)-yl)acetamide]
Emax: 30 to 80%

Cc1ccc(-n2nc(C(=O)N(CC(=O)O)c3ccccc3)c3c4ccccc4n(C)c3c2=O)cc1 [Example 163, 2-(5-methyl-4-oxo-N-phenyl-3-(p-tolyl)-4,5-dihydro-3H-pyridazino[4,5-b]indole-1-carboxamido)acetic acid]
Emax: 30 to 80%

Cn1c2ccccc2c2c(-c3ccccc3)nn(C3CCCCC3)c(=O)c21 [Example 241, 3-cyclohexyl-5-methyl-1-phenyl-3,5-dihydro-4H-pyridazino[4,5-b]indol-4-one]
Emax: 30 to 80% | EC50: < 10 µM

CCc1ccc(N(CC)C(=O)Cn2nc(Cc3cccnc3)c3cc(OC)ccc3c2=O)cc1 [Example 36, N-ethyl-N-(4-ethylphenyl)-2-(6-methoxy-1-oxo-4-(pyridin-3-ylmethyl)phthalazin-2(1H)-yl)acetamide]
Emax: 30 to 80%

CCN(C(=O)c1nn(-c2ccc(C)cc2)c(=O)c2c1c1ccccc1n2C)c1ccccn1 [Example 156, N-ethyl-5-methyl-4-oxo-N-(pyridin-2-yl)-3-(p-tolyl)-4,5-dihydro-3H-pyridazino[4,5-b]indole-1-carboxamide]
Emax: 30 to 80%

CCc1ccc(N(CC)C(=O)Cn2nc(Cc3cccnc3)c3cc(C(C)(C)C)ccc3c2=O)cc1 [Example 34, 2-(6-(tert-butyl)-1-oxo-4-(pyridin-3-ylmethyl)phthalazin-2(1H)-yl)-N-ethyl-N-(4-ethylphenyl)acetamide]
Emax: 30 to 80%

CC(C)N(C(=O)c1nn(-c2cnc3ccccc3c2)c(=O)c2c1c1ccccc1n2C)c1ccccc1 [Example 191, N-isopropyl-5-methyl-4-oxo-N-phenyl-3-(quinolin-3-yl)-4,5-dihydro-3H-pyridazino[4,5-b]indole-1-carboxamide]
Emax: 30 to 80% | EC50: > 20 µM

CCN(C(=O)c1nn(-c2ccccc2)c(=O)c2c1c1ccccc1n2C)c1ccncc1 [Example 158, N-ethyl-5-methyl-4-oxo-3-phenyl-N-(pyridin-4-yl)-4,5-dihydro-3H-pyridazino[4,5-b]indole-1-carboxamide]
Emax: 30 to 80%

COc1ccc2c(-c3cccc(C#N)c3)nn(CC(=O)N(C)c3ccc4nc(C)oc4c3)c(=O)c2c1 [Example 87, 2-(4-(3-cyanophenyl)-7-methoxy-1-oxophthalazin-2(1H)-yl)-N-methyl-N-(2-methylbenzo[d]oxazol-6-yl)acetamide]
Emax: > 80% | EC50: < 10 µM

CCN(CC)C(=O)c1nn(CC(O)COCc2ccccc2)c(=O)c2c1c1c(F)cccc1n2C (stereo not shown) [Example 234, 3-(3-(benzyloxy)-2-hydroxypropyl)-N,N-diethyl-9-fluoro-5-methyl-4-oxo-4,5-dihydro-3H-pyridazino[4,5-b]indole-1-carboxamide]
Emax: 30 to 80% | EC50: < 10 µM

CCc1ccc(N(CC)C(=O)Cn2nc(Cc3cccnc3)c3cc(OC)c(OC)cc3c2=O)cc1 [Example 32, 2-(6,7-dimethoxy-1-oxo-4-(pyridin-3-ylmethyl)phthalazin-2(1H)-yl)-N-ethyl-N-(4-ethylphenyl)acetamide]
Emax: 10 to 30%

CCN(CC)C(=O)c1nn(CC(=O)N(CC)c2ccc3c(c2)OC(F)(F)O3)c(=O)c2c1c1ccccc1n2C [Example 206, 3-(2-((2,2-difluorobenzo[d][1, 3]dioxol-5-yl)(ethyl)amino)-2-oxoethyl)-N,N-diethyl-5-methyl-4-oxo-4,5-dihydro-3H-pyridazino[4,5-b]indole-1-carboxamide]
Emax: 30 to 80%

CCN(C(=O)Cn1nc(-c2ccc(C(N)=O)cc2)c2ccc(OC)cc2c1=O)c1ccc2nc(C)oc2c1 [Example 84, 4-(3-(2-(ethyl(2-methylbenzo[d]oxazol-6-yl)amino)-2-oxoethyl)-6-methoxy-4-oxo-3,4-dihydrophthalazin-1-yl)benzamide]
Emax: 30 to 80%

CCN(C(=O)c1nn(-c2ccc(C)cc2)c(=O)c2[nH]c3ccccc3c12)c1cccc(Cl)c1 [Example 221, N-(3-chlorophenyl)-N-ethyl-4-oxo-3-(p-tolyl)-4,5-dihydro-3H-pyridazino[4,5-b]indole-1-carboxamide]
Emax: 30 to 80%

CCc1ccc(N(CC)C(=O)Cn2nc(-c3ccccc3)c3ccccc3c2=O)cc1 [Example 1, N-ethyl-N-(4-ethylphenyl)-2-(1-oxo-4-phenylphthalazin-2(1H)-yl)acetamide]
Emax: 10 to 30%

CCN(C(=O)c1nn(-c2ccc(C)cc2)c(=O)c2c1c1sc(C)cc1n2C)c1ccccc1F [Example 247, N-ethyl-N-(2-fluorophenyl)-2,4-dimethyl-5-oxo-6-(p-tolyl)-5,6-dihydro-4H-thieno[2′,3′:4,5]pyrrolo[2,3-d]pyridazine-8-carboxamide]
Emax: 30 to 80% | EC50: > 20 µM

Cc1nc2ccc(N(C)C(=O)Cn3ncc4c(c3=O)c3ccccc3n4Cc3ccc(C#N)cc3)cc2o1 [Example 149, 2-(5-(4-cyanobenzyl)-1-oxo-1,5-dihydro-2H-pyridazino[4,5-b]indol-2-yl)-N-methyl-N-(2-methylbenzo[d]oxazol-6-yl)acetamide]
Emax: 30 to 80% | EC50: < 10 µM

CCN(C(=O)c1nn(CC2CCCO2)c(=O)c2c1c1ccccc1n2C)c1ccccc1 (stereo not shown) [Example 216, N-ethyl-5-methyl-4-oxo-N-phenyl-3-((THF-2-yl)methyl)-4,5-dihydro-3H-pyridazino[4,5-b]indole-1-carboxamide]
Emax: 30 to 80% | EC50: < 10 µM

CCOC(=O)c1ccc2c(=O)n(CC(=O)N(C)c3ccc4nc(C)oc4c3)nc(-c3cccc(F)c3)c2c1 [Example 68, ethyl 4-(3-fluorophenyl)-2-(2-(methyl(2-methyl-benzo[d]oxazol-6-yl)amino)-2-oxoethyl)-1-oxo-1,2-dihydrophthalazine-6-carboxylate]
Emax: 30 to 80% | EC50: < 10 µM

CCN(C(=O)Cn1nc(-c2ccc(S(N)(=O)=O)cc2)c2ccc(OC)cc2c1=O)c1ccc2c(c1)OC(F)(F)O2 [Example 72, N-(2,2-difluorobenzo[d][1,3]dioxol-5-yl)-N-ethyl-2-(7-methoxy-1-oxo-4-(4-sulfamoylphenyl)phthalazin-2(1H)-yl)-acetamide]
Emax: > 80%

Cn1c2ccccc2c2c(-c3cccc(C#N)c3)nn(C3CCCCC3)c(=O)c21 [Example 244, 3-(3-cyclohexyl-5-methyl-4-oxo-4,5-dihydro-3H-pyridazino[4,5-b]indol-1-yl)benzonitrile]
Emax: 30 to 80% | EC50: < 10 µM

CCN(C(=O)c1nn(-c2ccc(C)cc2)c(=O)c2c1c1ccccc1n2CC(=O)O)c1ccccc1 [Example 224, 2-(1-(ethyl(phenyl)carbamoyl)-4-oxo-3-(p-tolyl)-3H-pyridazino[4,5-b]indol-5(4H)-yl)acetic acid]
Emax: 30 to 80%

CCc1ccc(N(CC)C(=O)Cn2nc(-c3ccc(C(N)=O)cc3)c3ccccc3c2=O)cc1 [Example 12, 4-(3-(2-(ethyl(4-ethylphenyl)amino)-2-oxoethyl)-4-oxo-3,4-dihydrophthalazin-1-yl)benzamide]
Emax: 30 to 80% | EC50: > 20 µM

CCN(C(=O)Cn1nc(Cc2cccnc2)c2c(OC)cccc2c1=O)c1ccc2c(c1)OC(F)(F)O2 [Example 56, N-(2,2-difluorobenzo[d][1,3]dioxol-5-yl)-N-ethyl-2-(5-methoxy-1-oxo-4-(pyridin-3-ylmethyl)phthalazin-2(1H)-yl)acetamide]
Emax: 30 to 80%
